Experimental data from patent US6810371B1 (priority 1906, dated 2004).
Like-named read-outs stand apart in the source and are kept apart here.

Experiments:
[1] = Estimated exposure amount of inhabitants (inhalation, percutaneous, oral); conditions: for estimated PERCUTANEOUS exposure amount: contact area 4.0 m^2/day; for estimated exposure amount in INHALATION (WINDOW CLOSED): exposure time 24 h/day; for estimated exposure amount in INHALATION (WINDOW OPEN): window opened for 5 minutes after spraying; for estimated ORAL exposure amount: hand surface area ratio about 5 %, oral transference ratio 100 %
Source text: estimated exposure amount in inhalation [mg/kg/day]=mean concentration in indoor air [mg/m^3]×amount of respiration [m^3/kg/min]×exposure time [min/day]
estimated percutaneous exposure amount [mg/kg/day]=(mean residual amount [mg/m^2]×skin attachment ratio [%]×contact area [m^2/day])/body weight [kg]
estimated oral exposure amount [mg/kg/day]=estimated percutaneous exposure amount [mg/kg/day]×hand surface area ratio [%]×oral transference ratio [%]
Here, the mean indoor respiration amount of Japanese is 0.220 [L/min/kg] for an adult, and 0.235 [L/min/kg] for an infant. Also, the exposure time was presumed to be 24 [h/day], taking account of the worst case where inhabitants are confined in the room for 24 hours after spraying.
In the table, “window closed” refers to the case where the window is closed throughout the exposure time, whereas “window open” refers to the case where spraying was effected in the state with the closed window and then the window was opened for 5 minutes (Example 3).
Here, it was assumed that the contact area for an infant and an adult was 4.0 [m^2/day], the body weight of the infant was 10.2 [kg], and the body weight of the adult was 50 [kg]. […] These values were used for calculating the estimated percutaneous exposure amount.
Here, while the hand surface area ratio was assumed to be about 5[%], and the oral transference ratio was presumed to be the worst case of 100[%], only the estimated oral exposure amount of the infant was calculated.

[2] = Experimental: Finally, if it is judged to be safe at S8, S12, or S15, overall safety is evaluated. Here, the sum of respective reciprocals of the previously determined inhalation safety coefficient, percutaneous safety coefficient, and oral safety coefficient is determined, and the reciprocal of thus determined value is defined as an overall safety coefficient (S16).
inhalation safety coefficient=inhalation non-influential amount [mg/kg/day]/estimated exposure amount in inhalation [mg/kg/day]
percutaneous safety coefficient=percutaneous non-influential amount [mg/kg/day]/estimated percutaneous exposure amount [mg/kg/day]
oral safety coefficient=oral non-influential amount [mg/kg/day]/estimated oral exposure amount [mg/kg/day]

rat = test: Non-influential amount of a rat (inhalation, percutaneous, oral toxicity tests); format: in vivo; conditions: for non-influential in-air concentration: 4-week inhalation test (d-phenothrin 4 h/day, 6 days a week; d-tetramethrin 3 h/day, 7 days a week); for non-influential amount in inhalation: 4-week test (d-phenothrin 4 h/day, 6 days a week; d-tetramethrin 3 h/day, 7 days a week), respiration 0.365 L/min/kg; for non-influential amount for oral exposure: 6-month test; for non-influential amount for percutaneous exposure: 21-day test
Source text: (6-month test) for oral exposure. […] (6-month test) for oral exposure.

[3] = ADULT, respiration 0.220 L/min/kg
[4] = INFANT, respiration 0.235 L/min/kg

Compound | estimated PERCUTANEOUS exposure amount ([1]; ADULT, body weight 50 kg) | estimated exposure amount in INHALATION (WINDOW CLOSED) [1, 3] | estimated exposure amount in INHALATION (WINDOW OPEN) ([1]; ADULT) | estimated PERCUTANEOUS exposure amount ([1]; INFANT, body weight 10.2 kg) | estimated exposure amount in INHALATION (WINDOW CLOSED) [1, 4] | estimated ORAL exposure amount ([1]; INFANT) | estimated exposure amount in INHALATION (WINDOW OPEN) ([1]; INFANT) | non-influential in-air concentration (rat) [mg/m^3] | non-influential amount in inhalation (rat) [mg/kg/day] | non-influential amount for oral exposure (rat) [mg/kg/day] | non-influential amount for percutaneous exposure (rat) [mg/kg/day] | also measured
CC(C)=CC1[C@@H](C(=O)OCc2cccc(Oc3ccccc3)c2)C1(C)C (stereo in doubt) [d-phenothrin] | 0.553 | 0.744 | 0.149 | 2.71 | 0.795 | 0.135 | 0.159 | 210 | 18.4 | 125 | 1000 | INHALATION (WINDOW CLOSED) safety coefficient ([2]; ADULT): 24,700; INHALATION (WINDOW OPEN) safety coefficient ([2]; ADULT): 124,000; PERCUTANEOUS safety coefficient ([2]; ADULT): 1,810,000; TOTAL (WINDOW CLOSED) safety coefficient ([2]; ADULT): 24,400; TOTAL (WINDOW OPEN) safety coefficient ([2]; ADULT): 116,000; INHALATION (WINDOW CLOSED) safety coefficient ([2]; INFANT): 23,100; INHALATION (WINDOW OPEN) safety coefficient ([2]; INFANT): 116,000; ORAL safety coefficient ([2]; INFANT): 923,000; PERCUTANEOUS safety coefficient ([2]; INFANT): 369,000; TOTAL (WINDOW CLOSED) safety coefficient ([2]; INFANT): 21,300; TOTAL (WINDOW OPEN) safety coefficient ([2]; INFANT): 80,400
CC(C)=CC1[C@@H](C(=O)OCN2C(=O)C3=C(CCCC3)C2=O)C1(C)C (stereo in doubt) [d-tetramethrin] | 0.438 | 1.01 | 0.202 | 2.15 | 1.12 | 0.107 | 0.224 | 49 | 3.22 | 10.75 | 1000 | 
